Test results: ChEMBL document CHEMBL1201862, “PubChem BioAssay data set” (2004)
Structures can show the parent of a compound that is named as a salt. Active and inactive are the calls of the source.

How the values were obtained:
[1] = Vero E6 cell cytotoxicity, dose response, cytotoxicity control for non-replicating M. tuberculosis project, secondary assay (AID 492998); assay type: functional, VeroE6; details: Vero C1008
[2] = target: T1, Microphthalmia-associated transcription factor (Homo sapiens, UniProt O75030); assay: reducers of TRPM1 reporter luminescence, concentration series – cell-based, SK-MEL-5, cherry-picked, set 3, MITF inhibitor project, dose response (AID 493073); assay type: functional;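 also: SK-MEL-5 melanoma cells with luciferase driven by the MITF target TRPM1 promoter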
T1 sequence (O75030 whole entry): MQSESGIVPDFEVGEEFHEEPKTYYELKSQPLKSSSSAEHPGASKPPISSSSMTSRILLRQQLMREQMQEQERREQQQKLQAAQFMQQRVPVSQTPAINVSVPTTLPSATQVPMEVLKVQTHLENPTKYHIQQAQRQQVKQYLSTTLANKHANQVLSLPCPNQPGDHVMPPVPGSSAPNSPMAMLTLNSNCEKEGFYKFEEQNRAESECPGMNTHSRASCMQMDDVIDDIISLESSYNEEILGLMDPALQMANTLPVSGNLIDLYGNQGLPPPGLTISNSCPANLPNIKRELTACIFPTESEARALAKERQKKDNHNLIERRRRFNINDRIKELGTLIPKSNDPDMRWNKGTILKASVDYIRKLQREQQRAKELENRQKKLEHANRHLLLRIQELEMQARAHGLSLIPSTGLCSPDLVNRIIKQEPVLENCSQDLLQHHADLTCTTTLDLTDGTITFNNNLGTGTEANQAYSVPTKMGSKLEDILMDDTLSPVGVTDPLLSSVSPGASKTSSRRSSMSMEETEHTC

[3] = THP-1 cell cytotoxicity, dose response, cytotoxicity control for non-replicating M. tuberculosis project (AID 489025); assay type: functional
cells = assay type: functional
[4] = HepG2 cell cytotoxicity, dose response, cytotoxicity control for non-replicating M. tuberculosis project (AID 489018); assay type: functional; details: Mycobacterium tuberculosis
[5] = Dd2 malaria parasite growth inhibition potency – SYBR Green, dry powder samples, dose response (AID 1159566); assay type: functional, cell-based;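 also: potency for growth inhibition with lower SYBR green DNA signal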
[6] = P. falciparum Dd2 growth inhibitors, dose response, SYBR Green, cherry-picked samples (AID 1159567); assay type: functional, cell-based
[7] = toxicity to human HepG2 hepatoma cells – cell-based, plate reader, dry powder samples, cytotoxicity control, dose response (AID 1159569); assay type: functional;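 also: inhibitor potency with signal falling toward the positive control level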
[8] = Dd2 parasite growth inhibition in erythrocytes – SYBR Green, dry powder samples, set 9, dose response (AID 1159568); assay type: functional, cell-based
[9] = growth inhibition of yeast DHODH-expressing 3D7 parasites – SYBR Green, dry powder samples, dose response (AID 1159570); assay type: functional, cell-based;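 also: parasite growth measured after 72 hours of compound exposure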
[10] = growth inhibition of PfATP4-mutant resistant parasites – NITD609-resistant line, SYBR Green, dry powder, dose response (AID 1159571); assay type: functional, cell-based;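 also: parasites synchronized at ring stage by sorbitol before testing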
Cytochrome P450 3A4 = Cytochrome P450 3A4 (Homo sapiens, UniProt P08684);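 also: CYP3A4 tested as one member of a cytochrome P450 panel screen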
Cytochrome P450 3A4, sequence (P08684 whole entry): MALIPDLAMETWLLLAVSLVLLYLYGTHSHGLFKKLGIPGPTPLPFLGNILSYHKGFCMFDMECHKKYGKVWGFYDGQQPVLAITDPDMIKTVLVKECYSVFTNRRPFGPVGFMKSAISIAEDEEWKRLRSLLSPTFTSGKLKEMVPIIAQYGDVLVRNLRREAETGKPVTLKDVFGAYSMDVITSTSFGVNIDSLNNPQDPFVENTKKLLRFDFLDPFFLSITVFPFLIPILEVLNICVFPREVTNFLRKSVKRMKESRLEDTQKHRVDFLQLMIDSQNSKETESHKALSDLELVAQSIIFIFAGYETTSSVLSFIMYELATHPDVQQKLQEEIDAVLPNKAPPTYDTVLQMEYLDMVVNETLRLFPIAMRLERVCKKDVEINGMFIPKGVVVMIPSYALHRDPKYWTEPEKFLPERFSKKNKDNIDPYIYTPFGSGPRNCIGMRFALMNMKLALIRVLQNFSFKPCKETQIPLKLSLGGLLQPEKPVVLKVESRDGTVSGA

Cytochrome P450 2D6 = Cytochrome P450 2D6 (Homo sapiens, UniProt P10635);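 also: CYP2D6 member of a cytochrome P450 panel assay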
Cytochrome P450 2D6, sequence (P10635 whole entry): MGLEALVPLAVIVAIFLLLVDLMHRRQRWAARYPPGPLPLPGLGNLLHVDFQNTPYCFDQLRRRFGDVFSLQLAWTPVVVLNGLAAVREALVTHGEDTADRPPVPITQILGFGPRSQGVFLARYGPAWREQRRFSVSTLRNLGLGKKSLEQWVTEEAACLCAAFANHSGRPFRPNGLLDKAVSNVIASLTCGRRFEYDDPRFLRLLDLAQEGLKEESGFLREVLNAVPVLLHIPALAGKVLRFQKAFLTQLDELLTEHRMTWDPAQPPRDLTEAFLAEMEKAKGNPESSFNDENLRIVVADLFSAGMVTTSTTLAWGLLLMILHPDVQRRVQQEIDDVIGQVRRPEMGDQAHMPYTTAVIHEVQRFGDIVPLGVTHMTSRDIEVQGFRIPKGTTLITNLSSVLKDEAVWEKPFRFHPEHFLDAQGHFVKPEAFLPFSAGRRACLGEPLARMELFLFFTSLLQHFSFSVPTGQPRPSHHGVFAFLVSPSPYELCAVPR

[11] = target: Voltage-gated inwardly rectifying potassium channel KCNH2 (Homo sapiens, UniProt Q12809); details: Potency;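 also: confirmatory quantitative high-throughput screen measuring inhibition of hERG channel activity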
Voltage-gated inwardly rectifying potassium channel KCNH2, sequence (Q12809 whole entry): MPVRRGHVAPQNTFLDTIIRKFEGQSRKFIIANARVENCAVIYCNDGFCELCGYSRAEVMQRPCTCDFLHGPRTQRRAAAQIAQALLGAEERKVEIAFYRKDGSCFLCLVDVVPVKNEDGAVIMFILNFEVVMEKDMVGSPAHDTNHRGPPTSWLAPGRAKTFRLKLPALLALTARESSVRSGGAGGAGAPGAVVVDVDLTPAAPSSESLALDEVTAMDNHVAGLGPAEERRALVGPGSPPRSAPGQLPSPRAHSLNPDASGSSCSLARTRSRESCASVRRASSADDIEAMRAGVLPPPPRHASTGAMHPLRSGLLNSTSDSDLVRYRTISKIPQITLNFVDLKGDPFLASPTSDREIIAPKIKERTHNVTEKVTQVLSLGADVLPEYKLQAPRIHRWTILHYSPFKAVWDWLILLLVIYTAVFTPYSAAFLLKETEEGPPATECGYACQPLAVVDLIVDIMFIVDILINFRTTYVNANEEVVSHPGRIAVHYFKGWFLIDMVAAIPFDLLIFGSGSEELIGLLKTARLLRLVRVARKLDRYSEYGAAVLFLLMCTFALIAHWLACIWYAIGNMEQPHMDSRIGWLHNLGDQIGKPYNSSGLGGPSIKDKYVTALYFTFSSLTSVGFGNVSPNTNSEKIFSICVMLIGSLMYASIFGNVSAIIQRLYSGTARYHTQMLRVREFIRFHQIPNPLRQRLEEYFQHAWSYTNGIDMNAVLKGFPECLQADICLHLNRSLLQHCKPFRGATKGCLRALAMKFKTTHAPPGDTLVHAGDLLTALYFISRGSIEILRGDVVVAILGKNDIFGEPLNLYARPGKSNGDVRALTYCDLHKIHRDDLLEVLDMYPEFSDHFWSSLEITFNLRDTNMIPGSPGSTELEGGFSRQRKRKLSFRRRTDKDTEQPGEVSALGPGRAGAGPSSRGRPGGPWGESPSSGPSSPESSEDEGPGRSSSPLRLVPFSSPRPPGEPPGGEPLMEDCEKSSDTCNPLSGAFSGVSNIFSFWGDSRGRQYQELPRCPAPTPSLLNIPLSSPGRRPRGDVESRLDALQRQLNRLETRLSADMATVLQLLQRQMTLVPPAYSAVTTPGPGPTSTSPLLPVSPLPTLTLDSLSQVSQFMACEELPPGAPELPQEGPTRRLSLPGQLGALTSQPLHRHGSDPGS

[12] = target: T2, Short transient receptor potential channel 4 (Mus musculus, UniProt Q9QUQ5); assay: calcium entry via TRPC4 opening agents – cell-based, HEK293 TRPC4/mu-opioid, Fluo-4 calcium, dose response (AID 434937); assay type: functional
T2 sequence (Q9QUQ5 whole entry): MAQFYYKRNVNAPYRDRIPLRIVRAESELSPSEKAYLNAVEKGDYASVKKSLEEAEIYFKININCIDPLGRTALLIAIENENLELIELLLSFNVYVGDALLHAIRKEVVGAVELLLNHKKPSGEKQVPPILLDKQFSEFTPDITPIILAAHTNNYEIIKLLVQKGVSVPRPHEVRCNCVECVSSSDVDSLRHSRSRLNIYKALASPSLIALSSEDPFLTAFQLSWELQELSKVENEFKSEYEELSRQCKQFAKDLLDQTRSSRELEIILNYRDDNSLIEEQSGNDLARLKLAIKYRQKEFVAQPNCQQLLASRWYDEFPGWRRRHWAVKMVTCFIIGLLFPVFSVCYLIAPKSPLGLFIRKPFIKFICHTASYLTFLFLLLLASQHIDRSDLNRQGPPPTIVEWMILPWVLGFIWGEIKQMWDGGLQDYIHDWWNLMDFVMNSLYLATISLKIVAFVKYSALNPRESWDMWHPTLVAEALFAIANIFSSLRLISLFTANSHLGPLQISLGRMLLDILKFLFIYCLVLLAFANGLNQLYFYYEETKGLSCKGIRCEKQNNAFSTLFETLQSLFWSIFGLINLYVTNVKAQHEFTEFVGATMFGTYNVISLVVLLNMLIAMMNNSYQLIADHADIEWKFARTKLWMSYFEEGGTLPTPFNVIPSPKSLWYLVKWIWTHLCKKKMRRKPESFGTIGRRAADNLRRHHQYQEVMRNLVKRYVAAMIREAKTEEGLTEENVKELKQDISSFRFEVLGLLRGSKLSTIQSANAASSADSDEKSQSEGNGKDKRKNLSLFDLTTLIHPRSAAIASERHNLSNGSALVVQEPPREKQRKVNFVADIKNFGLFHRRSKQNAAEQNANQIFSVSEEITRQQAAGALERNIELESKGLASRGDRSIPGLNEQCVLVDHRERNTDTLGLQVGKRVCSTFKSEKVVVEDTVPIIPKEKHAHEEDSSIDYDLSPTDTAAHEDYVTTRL

HEK293 = assay: EBV LMP1 TES2 canonical NF-kB signalling blockers – cell-based, HEK293, luciferase, cherry-pick, dose response (AID 588343); assay type: functional; details: Homo sapiens
[13] = general cell-killing toxicity readout – plate reader, dry powder samples, cytotoxicity control for PAX8 inhibitor project, dose response (AID 743021); assay type: functional, cell-based
Protein skinhead-1 = target: T3, Protein skinhead-1 (Caenorhabditis elegans, UniProt P34707); assay type: functional
T3 sequence (P34707 whole entry): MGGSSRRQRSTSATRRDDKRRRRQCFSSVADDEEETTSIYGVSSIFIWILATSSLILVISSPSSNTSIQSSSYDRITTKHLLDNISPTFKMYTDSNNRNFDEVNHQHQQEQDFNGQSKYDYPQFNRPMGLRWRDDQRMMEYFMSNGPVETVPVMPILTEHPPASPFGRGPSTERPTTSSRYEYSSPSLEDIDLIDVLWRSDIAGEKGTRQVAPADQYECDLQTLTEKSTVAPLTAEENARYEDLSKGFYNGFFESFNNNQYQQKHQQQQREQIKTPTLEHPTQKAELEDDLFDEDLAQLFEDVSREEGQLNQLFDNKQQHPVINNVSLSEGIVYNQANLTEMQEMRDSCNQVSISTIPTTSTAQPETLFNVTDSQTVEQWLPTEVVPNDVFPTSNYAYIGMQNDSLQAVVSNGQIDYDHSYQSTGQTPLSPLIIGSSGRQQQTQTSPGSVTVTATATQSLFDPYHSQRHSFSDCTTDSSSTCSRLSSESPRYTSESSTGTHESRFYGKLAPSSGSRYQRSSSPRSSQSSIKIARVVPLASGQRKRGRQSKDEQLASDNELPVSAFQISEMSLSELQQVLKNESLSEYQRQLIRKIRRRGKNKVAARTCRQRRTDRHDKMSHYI

Paired box protein Pax-8 = Paired box protein Pax-8 (Homo sapiens, UniProt Q06710); assay: PAX8 transcriptional activity inhibition in RMG-I – RMG-I cells, luciferase, cherry-pick, dose response (AID 687027); assay type: functional, cell-based;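 also: luciferase reporter driven by Pax8 target thyroperoxidase promoter measured by SteadyGlo luminescence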
Paired box protein Pax-8, sequence (Q06710 whole entry): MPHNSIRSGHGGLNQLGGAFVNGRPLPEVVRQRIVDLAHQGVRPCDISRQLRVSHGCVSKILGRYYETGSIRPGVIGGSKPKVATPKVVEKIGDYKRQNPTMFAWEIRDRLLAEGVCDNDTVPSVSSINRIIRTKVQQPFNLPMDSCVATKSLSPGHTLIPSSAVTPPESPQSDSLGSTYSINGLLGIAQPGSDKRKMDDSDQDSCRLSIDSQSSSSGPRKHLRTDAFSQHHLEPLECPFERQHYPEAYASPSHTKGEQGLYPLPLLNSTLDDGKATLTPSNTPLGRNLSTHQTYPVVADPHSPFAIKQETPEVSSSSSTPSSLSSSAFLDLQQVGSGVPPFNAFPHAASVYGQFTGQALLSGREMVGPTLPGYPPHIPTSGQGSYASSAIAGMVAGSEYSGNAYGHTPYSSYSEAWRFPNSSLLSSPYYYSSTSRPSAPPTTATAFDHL

Cc1onc(-c2ccccc2)c1C(=O)N/N=C/c1ccc([N+](=O)[O-])s1
CC50 [1]: 11.4 µM (active) | AC50 [2]: 5.35 µM (active) | CC50 [3]: 13.5 µM (active) | IC50 (cells): 14.9 µM (active) | CC50 [4]: 18.8 µM (active)

C[C@H]1CN([C@@H](C)CO)C(=O)c2cc(/C=C/c3ccccc3)cnc2O[C@@H]1CN(C)C(=O)C1CCCCC1
AC50 [5]: 0.291 µM (active) | AC50 [6]: 0.54 µM (active) | AC50 [7]: > 100 µM (inactive) | AC50 [8]: 0.082 µM (active) | AC50 [9]: 0.905 µM (active) | AC50 [10]: 0.464 µM (active)

CC(C)NC(=O)N1[C@H](C#N)[C@H](c2ccc(C#CC3CCCCC3)cc2)[C@@H]1CO
AC50 [5]: 0.495 µM (active) | AC50 [6]: 0.99 µM (active) | AC50 [7]: 28.6 µM (active) | AC50 [8]: 0.148 µM (active) | AC50 [9]: 1.58 µM (active) | AC50 [10]: 0.676 µM (active)

COc1ccc(-c2ccc3c(c2)[C@H]2[C@H](CCN2C(=O)C2CCCC2)[C@H](CO)N3C)cc1
AC50 [5]: 1.42 µM (active) | AC50 [6]: 1.87 µM (active) | AC50 [7]: 16.1 µM (active) | AC50 [9]: 2.27 µM (active) | AC50 [10]: 1.97 µM (active)

Cn1cnc2c(NC3CCCC3)ncnc21
AC50 (Cytochrome P450 3A4): 25.1 µM (inconclusive) | AC50 (Cytochrome P450 2D6): 20 µM (inconclusive) | AC50 [11]: 1.41 µM (inconclusive)

Cc1ccc(-n2cc(CNCCc3nc(C)c[nH]3)c(-c3ccc(F)cc3)n2)cc1
EC50 [12]: 6.68 µM (active) | CC50 [1]: 17.4 µM (active) | CC50 [3]: 24.1 µM (active) | IC50 (cells): 11.5 µM (active) | CC50 [4]: 16.7 µM (active)

O=c1cc(-c2ccccc2)oc2ccc3ccccc3c12 [BETA-NAPHTHOFLAVONE]
AC50 (HEK293): 0.646 µM (active) | AC50 [13]: 29.2 µM (active) | IC50 (Protein skinhead-1): > 100 µM (inactive) | AC50 (Paired box protein Pax-8): 5.9 µM (active)

CN(C)CCC(c1ccccc1)c1ccccn1 (stereo not given) [PHENIRAMINE MALEATE]
AC50 [11]: 15.8 µM (inconclusive)
